Patent US11654159B2, “Therapeutic use of electroacupuncture-induced mesenchymal stem cells” (UNIVERSITY OF FLORIDA RESEARCH FOUNDATION, INC., priority 2016, dated 2023)

Assays:
[1] = tested on: MSCs (Lin− CD90+CD44hi cells); assay: Pharmacological disinhibition of the dorsomedial regions of the tuberal hypothalamus: blood cells by flow cytometry; assay type: in vivo, rat; details: rats
Protocol: Adult male Sprague-Dawley rats (300-350 g; Harlan Laboratories, Indianapolis, Ind.), were housed in plastic cages under standard environmental conditions (22° C.; 12/12 light/dark cycle; lights on at 7:00 A.M.) for 7-10 days prior to the surgical manipulations. Food and water were provided ad libitum. All experiments were conducted in accordance with the Guide for the Care and Use of Laboratory Animals, 8th Edition (Institute for Laboratory Animal Research, The National Academies Press, Washington, D.C., 2011) and the guidelines of the IUPUI Institutional Animal Care and Use Committee.
Once rats were anesthetized with an isoflurane system (MGX Research Machine; Vetamic, Rossville, Ind.), they were placed in a small animal stereotaxic frame (Model 963 Ultra Precise Frame, Kopf, Tujunga, Calif.). […]

[2] = tested on: rat MSCs (Lin− CD90+CD44hi cells); details: rats
Protocol: (§1) Sprague-Dawley rats were injected with epinephrine (SO, El Monte, Ca) intraperitoneally at 50 μg/kg. Uninjected rats were used as baseline controls. Rats were euthanized at 2, 4, and 6 hours post injection. Blood was collected and processed for flow cytometry as described below. A separate cohort of rats was injected IP with 50 mg/kg dopamine for 4 days consecutively. After last injection, rats were euthanized at 2 and 4 hours post injection. Blood was collected and processed for flow cytometry as described below.
PBMCs were isolated using lympholyte M (Cedarlene, Ontario, Canada) density gradient separation and centrifuged at room temperature at 740×g for 30 minutes.
PBMCs were stained with the MPFC protocols in real-time within 24 h after blood collection at the Angio BioCore, IUPUI, for the identification of MSCs as previously described.^50-53 23 PBMCs were incubated with Fc blocking reagent (Miltenyi Biotec or BD biosciences) for 10 minutes on ice and stained as published^50. Cells were incubated with titrated antibodies for 30 minutes at 4° C., washed twice in PBS with 2% FBS, fixed in 1% paraformaldehyde (Tousimis, Rockville, Md.), and run on a BD LSRII flow cytometer (BD) equipped with a 405 nm violet laser, 488 nm blue laser and 633 nm red laser. Data were acquired uncompensated and exported as FCS 3.0 files, and analyzed utilizing FlowJo software, version 9.7.5 or version X (Tree Star, Inc, Ashland, Oreg.). “Fluorescent minus one” (FMO) gating controls were used to ensure proper gating of positive events^50,52,54. In order to resolve the rare and/or dim populations of interest, specific antigen and fluorochrome conjugate coupling was optimized for the six-antibody plus a viability marker staining panel^50-54. BD compBeads (BD Biosciences) were used for color compensations.
Rat MSC were gated sequentially on FMO gates for LIVE/DEAD^−CD45^−erythroid cells^−CD31^−CD11b^− CD90^+CD44H^+ cells.

[3] = tested on: MSCs; assay: Propranolol pretreatment before EA: MSC mobilization; assay type: in vivo, mice
Source text: Blood was collected and processed for flow cytometry as described below.

[4] = tested on: plasma NE; details: rats
Protocol: as §1
NE levels were measured in EA-treated horses using NE ELISA kit (ALPCO™, Salem, N.H.) according to the manufacturer's instructions. Plasma NE, Epi and DA levels were measured in EA treated rats using the TriCAT ELISA kit (ALPCO™).

C[N+]1(C)CCc2cc3c(cc2[C@H]1[C@@H]1OC(=O)c2c1ccc1c2OCO1)OCO3.[I-] [bicuculline methiodide]
total number of cells in the blood ([1]; 30 pmol into tuberal hypothalamus, p=0.412): did not alter | percentage of MSCs (Lin− CD90+CD44hi cells) ([1]; highest dose 50 pmol, 4 hours post injection, p=0.027): did increase

CNC[C@H](O)c1ccc(O)c(O)c1 [epinephrine]
MSCs in peripheral blood ([2]; epinephrine 50 μg/kg intraperitoneally, vs uninjected baseline, p=0.0125): significant elevation | time of increase of rat MSCs in the circulation ([2]; epinephrine IP): 6 h

CC(C)NCC(O)COc1cccc2ccccc12 (stereo not drawn) [propranolol]
mobilization of MSCs by EA ([3]; mice pretreated for 24 hours prior to EA, p<0.01): prevented | MSC mobilization by EA ([3]; pretreatment, at 4 hours, compared to untreated animals, p=0.01): inhibited

NCCc1ccc(O)c(O)c1 [dopamine]
time of increase in circulating MSCs ([2]; dopamine IP): 2 h | NE levels ([4]; dopamine 50 mg/kg for 4 consecutive days): pointed increase | time of peak in plasma NE concentration post administration ([4]; dopamine IP): 2 h
